The structures appear in SMILES notation. ≈ marks a conversion by molar mass, not a printed value. Calls of active or inactive are those of the source. The calls are words filed in the database; no cut-off is given here.

These results are taken from ChEMBL document CHEMBL5338747, “Discovery of Quaternized Pyridine-Thiazole-Pleuromutilin Derivatives with Broad-Spectrum Antibacterial and Potent Anti-MRSA Activity” (J Med Chem, 2023).

Series [1] deals with Mesomycoplasma hyopneumoniae. Kind of series: Anti-mycoplasma activity against Mycoplasma hyopneumoniae J NCTC10110 assessed as inhibition of mycoplasma growth measured after 7 days by broth microdilution method. Format: functional. As to conditions: J NCTC10110, 168 h, time 7 day.
The test system of series [2] is Mesomycoplasma hyopneumoniae. Put plainly: Anti-mycoplasma activity against Mycoplasma hyopneumoniae LH assessed as inhibition of mycoplasma growth measured after 7 days by broth microdilution method. The class given is functional. To be noted: 168 h, time 7 day.
Series [3] relates to Mesomycoplasma hyorhinis. Kind of series: Anti-mycoplasma activity against Mycoplasma hyorhinis BTS-7 NCTC10130 assessed as inhibition of mycoplasma growth measured after 7 days by broth microdilution method. Format: functional. To be noted: BTS-7 NCTC10130, 168 h, time 7 day.
Series [4] deals with Mycoplasmoides gallisepticum. Kind of series: Anti-mycoplasma activity against Mycoplasma gallisepticum R NCTC10115 assessed as inhibition of mycoplasma growth measured after 7 days by broth microdilution method. Format: functional. As to conditions: R NCTC10115, 168 h, time 7 day.
In series [5] the test system is Mycoplasmopsis synoviae. Put plainly: Anti-mycoplasma activity against Mycoplasma synoviae WVU1853 NCTC10124 assessed as inhibition of mycoplasma growth measured after 7 days by broth microdilution method. Format: functional. To be noted: WVU1853 NCTC10124, 168 h, time 7 day.
Series [6] concerns Mycoplasmoides pneumoniae. Put plainly: Anti-mycoplasma activity against Mycoplasma pneumoniae M129 ATCC15531 assessed as inhibition of mycoplasma growth measured after 7 days by broth microdilution method. The class given is functional. As to conditions: M129 ATCC15531, 168 h, time 7 day.
Series [7] deals with Metamycoplasma hominis. Kind of series: Anti-mycoplasma activity against Mycoplasma hominis PG-21 ATCC23114 assessed as inhibition of mycoplasma growth measured after 7 days by broth microdilution method. The class given is functional. To be noted: PG-21 ATCC23114, 168 h, time 7 day.
Series [8] deals with Mycoplasma genitalium. Kind of series: Anti-mycoplasma activity against Mycoplasma genitalium G37 ATCC33530 assessed as inhibition of mycoplasma growth measured after 7 days by broth microdilution method. Format: functional. As to conditions: Mycoplasmoides genitalium, G37 ATCC33530, 168 h; time 7 day.
Series [9] in a line: Aqueous solubility of the compound in physiological saline measured after 12 hrs by UV spectrophotometric analysis. The class given is physicochemical.
Series [10] concerns Staphylococcus aureus. Kind of series: Antibacterial activity against methicillin-resistant Staphylococcus aureus ATCC 33591 infected in Kunming mouse assessed as reduction in bacterial load in kidney at 10 mg/kg, ip for 2 days starting from 1 hr post-infection by hematoxylin-eosin staining based analysis. To be noted: time 2.0 day. Format: functional, organism-based.
In series [11] the test system is Staphylococcus aureus. Put plainly: Antibacterial activity against methicillin-resistant Staphylococcus aureus ATCC 33591 infected in Kunming mouse assessed as reduction in bacterial load in liver at 10 mg/kg, ip for 2 days starting from 1 hr post-infection by hematoxylin-eosin staining based analysis. Format: functional, organism-based. As to conditions: time 2.0 day.

Series [12] concerns Staphylococcus aureus. Kind of series: Antibacterial activity against methicillin-resistant Staphylococcus aureus ATCC 33591 infected in Kunming mouse assessed as reduction in bacterial load in lungs at 10 mg/kg, ip for 2 days starting from 1 hr post-infection by hematoxylin-eosin staining based analysis. The class given is functional, organism-based. As to conditions: time 2.0 day.

The subject of series [13] is Staphylococcus aureus. Put plainly: Antibacterial activity against methicillin-resistant Staphylococcus aureus ATCC 33591 assessed as inhibition of bacterial growth incubated for 24 hrs by broth microdilution method. Format: functional.
Series [14] relates to Staphylococcus aureus. Kind of series: Antibacterial activity against methicillin-resistant Staphylococcus aureus ATCC 43300 assessed as inhibition of bacterial growth incubated for 24 hrs by broth microdilution method. Format: functional.
The subject of series [15] is Staphylococcus aureus. Kind of series: Antibacterial activity against […] assessed as inhibition of bacterial growth incubated for 24 hrs by broth microdilution method. Format: functional. As to conditions: ATCC 29213.
Series [16] concerns Staphylococcus epidermidis. Put plainly: Antibacterial activity against methicillin-resistant Staphylococcus epidermidis ATCC 51625 assessed as inhibition of bacterial growth incubated for 24 hrs by broth microdilution method. Format: functional.
In series [17] the test system is Acinetobacter baumannii. Put plainly: Antibacterial activity against Acinetobacter baumannii ATCC 19606 assessed as inhibition of bacterial growth incubated for 24 hrs by broth microdilution method. Format: functional.
In series [18] the test system is Salmonella enterica. Kind of series: Antibacterial activity against Salmonella enterica ATCC 14028 assessed as inhibition of bacterial growth incubated for 24 hrs by broth microdilution method. The class given is functional.
For series [19], the system named is Escherichia coli. Put plainly: Antibacterial activity against Escherichia coli ATCC 25922 assessed as inhibition of bacterial growth incubated for 24 hrs by broth microdilution method. Format: functional.
Series [20] concerns Escherichia coli. Put plainly: Antibacterial activity against Escherichia coli CMCC 44103 assessed as inhibition of bacterial growth incubated for 24 hrs by broth microdilution method. The class given is functional.
A short description of series [21]: Cytotoxicity against human HEK293 cells assessed as reduction in cell viability measured after 48 hrs by CCK8 assay. The class given is toxicity, cell-based.
Series [22] can be described thus: Cytotoxicity against human A549 cells assessed as reduction in cell viability measured after 48 hrs by CCK8 assay. Format: toxicity, cell-based.
Series [23] can be described thus: Cytotoxicity against human HepG2 cells assessed as reduction in cell viability measured after 48 hrs by CCK8 assay. Format: toxicity, cell-based.
In series [24] the test system is Staphylococcus aureus. Kind of series: Disruption of biofilm formation in methicillin-resistant Staphylococcus aureus ATCC 33591 assessed as inhibition of biofilm formation at MIC measured after 24 hrs by crystal violet staining based analysis. Format: functional.
For series [25], the system named is Escherichia coli. Kind of series: Disruption of biofilm formation in Escherichia coli ATCC 25922 assessed as inhibition of biofilm formation at MIC measured after 24 hrs by crystal violet staining based analysis. Format: functional.
Series [26] relates to Staphylococcus aureus. Put plainly: Disruption of biofilm formation in methicillin-resistant Staphylococcus aureus ATCC 33591 assessed as inhibition of biofilm formation at 4XMIC measured after 24 hrs by crystal violet staining based analysis. The class given is functional.
In series [27] the test system is Escherichia coli. Put plainly: Disruption of biofilm formation in Escherichia coli ATCC 25922 assessed as inhibition of biofilm formation at 4XMIC measured after 24 hrs by crystal violet staining based analysis. The class given is functional.
Series [28] concerns Staphylococcus aureus. Put plainly: Antibacterial activity against methicillin-resistant Staphylococcus aureus ATCC 33591 infected in ip dosed Kunming mouse assessed as protection against bacterial infection administered for 7 days starting from 1 hr post-infection. The class given is functional.
Series [29] has as its system Staphylococcus aureus. Put plainly: Antibacterial activity against methicillin-resistant Staphylococcus aureus ATCC 33591 infected in Kunming mouse assessed as animal survival rate at 5 mg/kg, ip for 7 days starting from 1 hr post-infection. Format: functional. As to conditions: time 7.0 day.

`C=C[C@]1(C)C[C@@H](OC(=O)CSCCN(CC)CC)[C@]2(C)[C@H](C)CC[C@]3(CCC(=O)[C@H]32)[C@@H](C)[C@@H]1O` [TIAMULIN]: the MIC was found to be 0.03 mg/L (≈ 0.0608 µM) in series [1]; 0.015 mg/L (≈ 0.0304 µM) in series [2]; 0.03 mg/L (≈ 0.0608 µM) in series [3]; 0.125 mg/L (≈ 0.253 µM) in [4]; 2 mg/L (≈ 4.05 µM) in series [5]; 0.125 mg/L (≈ 0.253 µM) in series [6]. For the same compound, the MIC in series [7] amounted to 0.25 mg/L (≈ 0.506 µM); in series [8], 0.03 mg/L (≈ 0.0608 µM). The compound also registered a solubility at 12 h in series [9] of 227 µM (≈ 112 µg/mL).

`C=C[C@]1(C)C[C@@H](OC(=O)CSC(C)(C)CNC(=O)[C@H](N)C(C)C)[C@]2(C)[C@H](C)CC[C@]3(CCC(=O)[C@H]32)[C@@H](C)[C@@H]1O` [VALNEMULIN]: the result in [10], in series [11], in series [12] and in series [29] was Active. The minimum inhibitory concentration (MIC) turned out to be 128 mg/L (≈ 227 µM) in [13]; 8 mg/L (≈ 14.2 µM) in [14]; 4 mg/L (≈ 7.08 µM) in series [15]; 64 mg/L (≈ 113 µM) in [16]; 2 mg/L (≈ 3.54 µM) in series [17]; 64 mg/L (≈ 113 µM) in series [18]. Besides, the values for the MIC in series [19] and in series [20] were 16 mg/L (≈ 28.3 µM) and 64 mg/L (≈ 113 µM), respectively. For the same compound, in series [9], the concentration in solution (solubility at 12 h) was 341 µM (≈ 193 µg/mL). For the same compound, the CC50 at 48 h in series [21] was 65.4 µM; in [22], 88 µM; in series [23], 87.3 µM. Moreover, the “inhibition (INH)” value turned out to be 38.1% in series [24], 26.52% in [25], 68.59% in [26] and 64.02% in [27]. Moreover, in series [28] (ATCC 33591, 168 h, time 7 day), the ED50 came out at 12.3 mg/kg. Besides, in [28] (time 7.0 day), the Activity result is “Dose-Dependent Effect”.
